Laboratory results: the supplement of paper PMC13380429

Tests used:
[1] = tested on: A549-ACE2 infected with SARS-CoV-2; test: morphology score (similarity to uninfected cells); higher = more like uninfected cells; settings: 24 h
[2] = tested on: A549-ACE2 infected with SARS-CoV-2; test: cell count relative to DMSO; higher = less toxic; settings: 24 h
U2OS [3] = test: relative viability EC50 (midpoint between 100% and the lowest measured viability); higher = less toxic; settings: 72 h
Caco-2 [4] = test: as above; settings: 72 h
Calu-3 [5] = test: as above; settings: 72 h
Vero E6 [6] = test: as above; settings: 72 h
U2OS [7] = test: cell viability relative to DMSO; higher = less toxic; settings: 72 h
HepG2 [8] = test: as above; settings: 72 h
Caco-2 [9] = test: as above; settings: 72 h
Calu-3 [10] = test: as above; settings: 72 h
Vero E6 [11] = test: as above; settings: 72 h
U2OS [12] = test: drug sensitivity score (DSS) for viability; higher = more toxic; extreme values may be limits of the assay; settings: 72 h
HepG2 [13] = test: as above; settings: 72 h
Caco-2 [14] = test: as above; settings: 72 h
Calu-3 [15] = test: as above; settings: 72 h
Vero E6 [16] = test: as above; settings: 72 h
A549-ACE2 = test: drug-induced phospholipidosis relative to tamoxifen; higher = more phospholipidosis
[17] = tested on: A549-ACE2 infected with SARS-CoV-2; test: SARS-CoV-2 infection rate relative to DMSO; higher = more infection; settings: 24 h
HepG2 [18] = test: relative viability EC50 (midpoint between 100% and the lowest measured viability); higher = less toxic; settings: 72 h

NS(=O)(=O)C#Cc1ccccc1 [pifithrin-mu]
Settings | SARS-CoV-2 infection rate, [17] [%] | cell count, [2] [%] | cell viability, Caco-2 [9] [%] | cell viability, Calu-3 [10] [%] | cell viability, HepG2 [8] [%] | cell viability, U2OS [7] [%] | cell viability, Vero E6 [11] [%] | morphology score, [1]
1 nM | – | – | 97.2 | 107 | 104 | 99.8 | 100 | –
10 nM | – | – | 100 | 99 | 89.3 | 97.5 | 95.5 | –
0.1 µM | 104 | 98 | – | – | – | – | – | -0.1
100 nM | – | – | 102 | 98.4 | 91.1 | 97.2 | 94.4 | –
0.3 µM | 106 | 98 | – | – | – | – | – | -0.19
1 µM | 90 | 101 | – | – | – | – | – | 0.29
1000 nM | – | – | 92.4 | 111 | 104 | 95.7 | 98.4 | –
3 µM | 101 | 99 | – | – | – | – | – | -0.06
10000 nM | – | – | 37.8 | 89.7 | 54.3 | 20 | 77.9 | –

Settings | drug sensitivity score | relative viability EC50 [µM]
Caco-2 [4] | – | 2.17
Caco-2 [14] | 4.7 | –
Calu-3 [5] | – | > 10
Calu-3 [15] | 0 | –
HepG2 [13] | 2 | –
U2OS [3] | – | 2.75
U2OS [12] | 5 | –
Vero E6 [6] | – | > 10
Vero E6 [16] | 1 | –

drug-induced phospholipidosis [%], A549-ACE2
Settings | 0.3 µM | 0.833333 µM | 3.33333 µM | 6.66667 µM | 10 µM | 30 µM
24 h | 2.1 | 0.49 | 1.97 | 5.31 | 12.1 | -1.3
48 h | 2.3 | -0.12 | 0.23 | 3.31 | 7.4 | –
72 h | 3.99 | -0.0686 | 0.345 | 0.553 | 1.82 | –

CCCCC/C=C\C=C\CCCCCCCCC(=O)O [trans-10,cis-12-conjugated-linoleic-acid]
Settings | drug sensitivity score | relative viability EC50 [µM]
Caco-2 [4] | – | > 10
Caco-2 [14] | 0 | –
Calu-3 [5] | – | > 10
Calu-3 [15] | 0 | –
HepG2 [13] | 0 | –
HepG2 [18] | – | > 10
U2OS [3] | – | > 10
U2OS [12] | 0 | –
Vero E6 [6] | – | > 10
Vero E6 [16] | 0 | –

cell viability [%]
Settings | Caco-2 [9] | Calu-3 [10] | HepG2 [8] | U2OS [7] | Vero E6 [11]
1 nM | 94.9 | 102 | 107 | 97.8 | 109
10 nM | 101 | 96.1 | 92 | 96.8 | 108
100 nM | 96.6 | 100 | 90.8 | 103 | 102
1000 nM | 101 | 96.2 | 101 | 97.4 | 102
10000 nM | 99.6 | 101 | 100 | 102 | 99.1

CCOC1O[C@H]([C@@H](COCc2ccccc2)OCc2ccccc2)[C@H](OCc2ccccc2)[C@H]1O (some centres not stated) [tribenoside]
Settings | drug sensitivity score | relative viability EC50 [µM]
Caco-2 [4] | – | > 10
Caco-2 [14] | 0 | –
Calu-3 [5] | – | > 10
Calu-3 [15] | 0 | –
HepG2 [13] | 0 | –
HepG2 [18] | – | > 10
U2OS [3] | – | > 10
U2OS [12] | 0 | –
Vero E6 [6] | – | > 10
Vero E6 [16] | 0 | –

cell viability [%]
Settings | Caco-2 [9] | Calu-3 [10] | HepG2 [8] | U2OS [7] | Vero E6 [11]
1 nM | 93 | 93.5 | 91.4 | 93.9 | 91.6
10 nM | 96.2 | 94.6 | 104 | 96.3 | 94.8
100 nM | 90.3 | 102 | 93.6 | 101 | 91.6
1000 nM | 95.6 | 105 | 92.6 | 97.3 | 93.7
10000 nM | 94 | 106 | 94.2 | 98 | 111

Cc1c(C)c2c(c(C)c1O)CCC(C)(C(=O)O)O2 (configuration not stated) [trolox]
Settings | drug sensitivity score | relative viability EC50 [µM]
Caco-2 [4] | – | > 10
Caco-2 [14] | 0.8 | –
Calu-3 [5] | – | > 10
Calu-3 [15] | 0 | –
HepG2 [13] | 0 | –
HepG2 [18] | – | > 10
U2OS [3] | – | > 10
U2OS [12] | 0 | –
Vero E6 [6] | – | > 10
Vero E6 [16] | 1.3 | –

cell viability [%]
Settings | Caco-2 [9] | Calu-3 [10] | HepG2 [8] | U2OS [7] | Vero E6 [11]
1 nM | 106 | 105 | 96.8 | 104 | 94.7
10 nM | 103 | 105 | 90.2 | 95.6 | 105
100 nM | 88.5 | 98.1 | 92.6 | 105 | 102
1000 nM | 93.3 | 106 | 87.6 | 97 | 95.9
10000 nM | 90.9 | 104 | 98.8 | 103 | 77.9

NC(CO)(CO)CO [trometamol]
Settings | drug sensitivity score | relative viability EC50 [µM]
Caco-2 [4] | – | > 10
Caco-2 [14] | 0 | –
Calu-3 [5] | – | > 10
Calu-3 [15] | 0 | –
HepG2 [13] | 0 | –
HepG2 [18] | – | > 10
U2OS [3] | – | > 10
U2OS [12] | 0 | –
Vero E6 [6] | – | > 10
Vero E6 [16] | 0 | –

cell viability [%]
Settings | Caco-2 [9] | Calu-3 [10] | HepG2 [8] | U2OS [7] | Vero E6 [11]
1 nM | 93.4 | 92.4 | 101 | 93.3 | 102
10 nM | 102 | 117 | 93.7 | 96.6 | 98.6
100 nM | 111 | 103 | 106 | 98.8 | 106
1000 nM | 112 | 101 | 86 | 101 | 86.4
10000 nM | 97.3 | 108 | 100 | 107 | 95.4

O=P(O)(O)C(O)(Cn1ccnc1)P(=O)(O)O [zoledronic-acid]
Settings | drug sensitivity score | relative viability EC50 [µM]
Caco-2 [4] | – | > 10
Caco-2 [14] | 0 | –
Calu-3 [5] | – | > 10
Calu-3 [15] | 0 | –
HepG2 [13] | 0 | –
HepG2 [18] | – | > 10
U2OS [3] | – | > 10
U2OS [12] | 0 | –
Vero E6 [6] | – | > 10
Vero E6 [16] | 0 | –

cell viability [%]
Settings | Caco-2 [9] | Calu-3 [10] | HepG2 [8] | U2OS [7] | Vero E6 [11]
1 nM | 98.2 | 110 | 101 | 96.5 | 99.7
10 nM | 95.1 | 100 | 98.7 | 96.2 | 104
100 nM | 96.8 | 91.9 | 95.2 | 100 | 100
1000 nM | 93.2 | 93.4 | 97.7 | 99.3 | 98.9
10000 nM | 91.6 | 97.7 | 94.1 | 97.2 | 99.3
